Consider four molecules from patent US10988456B2, “O-aminoheteroaryl alkynyl-containing compound, preparation method therefor, and use thereof” (SHANGHAI INSTITUTE OF MATERIA MEDICA, CHINESE ACADEMY OF …, priority 2017, dated 2021).

In data set [1] the test system is human lung cancer NCI-H1581 xenografts. In words: Growth of subcutaneous xenografts of human lung cancer NCI-H1581 in nude mice. The data set is classed as in vivo. To be noted: for Relative tumor volume RTV (mean ± SD): NCI-H1581, 12.5 mg/kg orally once a day; for Weight (g, mean ± SD): NCI-H1581 tumor-bearing mice, 12.5 mg/kg orally once a day. The protocol:
The diameter of the subcutaneously implanted tumor in nude mice was measured by a vernier caliper. […] In the compound HuFGFR267 50 mg/kg group, the compound was formulated with 0.5% methylcellulose (MC) to the required concentration before use. The formulation of compound was prepared once a week, and orally administered once a day for 14 days. The positive control drug AZD4547 was diluted to the required concentration with water for injection containing 1% Tween 80 before use. The formulation of AZD4547 was prepared once a week, and orally administered once a day for 14 days. In the solvent control group, an equal amount of water for injection was administrated.
On the technique in general: Xenograft models place foreign cells or tissue in a host animal.

The test system of data set [2] is human gastric cancer SNU-16 xenografts. Description: Growth of subcutaneous xenografts of human gastric cancer SNU-16 in nude mice (HuFGFR267 study). The data set is classed as in vivo. To be noted: for Relative tumor volume RTV (mean ± SD): SNU-16, 12.5 mg/kg orally once a day; for Weight (g, mean ± SD): SNU-16 tumor-bearing mice, 12.5 mg/kg orally once a day. The protocol: The diameter of the subcutaneously implanted tumor in nude mice was measured by a vernier caliper. […] In the compound HuFGFR267 50 mg/kg group, the compound was formulated with 0.5% methylcellulose (MC) to the required concentration before use. […] The positive control drug AZD4547 was diluted to the required concentration with water for injection containing 1% Tween 80 before use. […] In the solvent control group, an equal amount of water for injection was administrated.

A further data set concerns the target FGFR1 (Homo sapiens, UniProt P11362). In words: Inhibition of receptor tyrosine kinase activity at molecular level (ELISA, Poly(Glu,Tyr)4:1 substrate phosphorylation). The data set is classed as biochemical. To be noted: for inhibition ratio FGFR1 (100 nM): 100 nM compound. On the procedure: (§1) Enzyme reaction substrate Poly(Glu, Tyr)4:1 was diluted with potassium-free PBS (10 mM sodium phosphate buffer, 150 mM NaCl, pH 7.2-7.4) to 20 μg/mL. […] The reaction was conducted under 37° C. for 12-16 hours. After the liquid was removed from the wells, the plate was washed three times with 200 μL/well of T-PBS (PBS containing 0.1% Tween-20), each for 5 minutes. The enzyme plate was dried in 37° C. dryer for 1-2 hours.
(§2) 50 μL ATP solution diluted with buffer (50 mM HEPES pH 7.4, 50 mM MgCl2, 0.5 mM MnCl2, 0.2 mM Na3VO4, 1 mM DTT) to a final concentration of 5 μM was added into each well. The compound was diluted with DMSO to a suitable concentration (1 μL/well) or the well contained the corresponding concentration of DMSO (negative control well) Then various kinase recombinant proteins diluted with 49 μL of reaction buffer was added to initiate the reaction. Each experiment required duplicate enzyme-free control well. The reaction was carried out for 1 hour on a 37° C. Shaker (100 rpm). The plate was washed three times with T-PBS. A dilution of the primary antibody PY99 was added (100 μL/well), and the reaction was conducted in a shaker at 37° C. for 0.5 hr. The plate was washed three times with T-PBS. A dilution of the horseradish peroxidase-labeled goat anti-mouse IgG secondary antibody was added (100 μL/well), and the reaction was conducted in a shaker at 37° C. for 0.5 hour. Plate was washed with T-PBS for three times. 2 mg/mL OPD coloration solution (diluted with 0.1 M citric acid-sodium citrate buffer containing 0.03% H2O2 (pH=5.4)) was added (100 μL/well), reacted for 1-10 minutes at 25° C. in dark. The reaction was quenched with 2M H2SO4 (50 μL/well), and read at 490 nm using a tunable microplate reader SPECTRA MAX 190.
(§3) The inhibition ratio of the sample was determined by the following formula: […]
(§4) The IC50 values were obtained via four-parameter regression analysis using the software supplied with the microplate reader.
(ELISA stands for enzyme-linked immunosorbent assay.)

For another data set, the target named is KDR (Homo sapiens, UniProt P35968). Described as above. Particulars: for 10 nM inhibition ratio KDR: 10 nM compound, average of two independent experiments. The data set is classed as biochemical. The protocol:
as §1, §2, §3, §4

For a further data set, the target named is RET (Homo sapiens, UniProt P07949). The description is as above. Particulars: for 10 nM inhibition ratio RET: 10 nM compound, average of two independent experiments. The data set is classed as biochemical. On the procedure:
as §1, §2, §3, §4

Chain of KDR (P35968 20-1356): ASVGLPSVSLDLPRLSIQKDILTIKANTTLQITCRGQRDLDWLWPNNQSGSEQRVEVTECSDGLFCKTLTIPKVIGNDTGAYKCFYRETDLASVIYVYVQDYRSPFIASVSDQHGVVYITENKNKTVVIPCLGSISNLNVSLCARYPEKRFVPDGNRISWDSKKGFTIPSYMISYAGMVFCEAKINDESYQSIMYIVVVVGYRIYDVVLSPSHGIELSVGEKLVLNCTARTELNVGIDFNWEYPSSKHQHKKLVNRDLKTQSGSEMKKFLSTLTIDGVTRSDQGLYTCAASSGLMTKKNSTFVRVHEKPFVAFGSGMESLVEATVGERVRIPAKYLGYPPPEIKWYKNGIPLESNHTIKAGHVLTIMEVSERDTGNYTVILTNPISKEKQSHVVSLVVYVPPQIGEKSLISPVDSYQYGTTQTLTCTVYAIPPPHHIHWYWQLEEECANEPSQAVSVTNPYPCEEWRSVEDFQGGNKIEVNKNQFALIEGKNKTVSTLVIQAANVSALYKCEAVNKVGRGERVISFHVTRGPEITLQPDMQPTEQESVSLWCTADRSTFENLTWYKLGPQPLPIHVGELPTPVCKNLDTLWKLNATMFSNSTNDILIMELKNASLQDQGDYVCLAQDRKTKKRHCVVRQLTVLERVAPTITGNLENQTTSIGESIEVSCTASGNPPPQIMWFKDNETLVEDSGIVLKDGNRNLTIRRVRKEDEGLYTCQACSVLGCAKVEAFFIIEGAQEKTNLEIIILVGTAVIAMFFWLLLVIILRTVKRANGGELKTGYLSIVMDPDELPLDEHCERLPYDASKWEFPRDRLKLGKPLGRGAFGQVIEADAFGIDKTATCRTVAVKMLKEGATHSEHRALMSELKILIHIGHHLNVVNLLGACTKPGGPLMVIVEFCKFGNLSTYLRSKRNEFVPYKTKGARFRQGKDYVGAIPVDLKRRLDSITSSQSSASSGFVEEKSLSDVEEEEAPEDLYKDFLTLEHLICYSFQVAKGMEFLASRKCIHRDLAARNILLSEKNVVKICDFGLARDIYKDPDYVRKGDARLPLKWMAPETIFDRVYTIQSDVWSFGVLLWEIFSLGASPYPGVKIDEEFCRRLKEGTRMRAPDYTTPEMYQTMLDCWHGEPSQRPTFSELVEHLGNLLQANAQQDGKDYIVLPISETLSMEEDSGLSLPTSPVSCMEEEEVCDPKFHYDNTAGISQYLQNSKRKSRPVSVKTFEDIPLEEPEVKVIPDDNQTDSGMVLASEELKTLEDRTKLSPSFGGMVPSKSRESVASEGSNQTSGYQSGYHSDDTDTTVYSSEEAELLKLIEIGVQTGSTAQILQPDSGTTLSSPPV
Chain of FGFR1 (P11362 22-822): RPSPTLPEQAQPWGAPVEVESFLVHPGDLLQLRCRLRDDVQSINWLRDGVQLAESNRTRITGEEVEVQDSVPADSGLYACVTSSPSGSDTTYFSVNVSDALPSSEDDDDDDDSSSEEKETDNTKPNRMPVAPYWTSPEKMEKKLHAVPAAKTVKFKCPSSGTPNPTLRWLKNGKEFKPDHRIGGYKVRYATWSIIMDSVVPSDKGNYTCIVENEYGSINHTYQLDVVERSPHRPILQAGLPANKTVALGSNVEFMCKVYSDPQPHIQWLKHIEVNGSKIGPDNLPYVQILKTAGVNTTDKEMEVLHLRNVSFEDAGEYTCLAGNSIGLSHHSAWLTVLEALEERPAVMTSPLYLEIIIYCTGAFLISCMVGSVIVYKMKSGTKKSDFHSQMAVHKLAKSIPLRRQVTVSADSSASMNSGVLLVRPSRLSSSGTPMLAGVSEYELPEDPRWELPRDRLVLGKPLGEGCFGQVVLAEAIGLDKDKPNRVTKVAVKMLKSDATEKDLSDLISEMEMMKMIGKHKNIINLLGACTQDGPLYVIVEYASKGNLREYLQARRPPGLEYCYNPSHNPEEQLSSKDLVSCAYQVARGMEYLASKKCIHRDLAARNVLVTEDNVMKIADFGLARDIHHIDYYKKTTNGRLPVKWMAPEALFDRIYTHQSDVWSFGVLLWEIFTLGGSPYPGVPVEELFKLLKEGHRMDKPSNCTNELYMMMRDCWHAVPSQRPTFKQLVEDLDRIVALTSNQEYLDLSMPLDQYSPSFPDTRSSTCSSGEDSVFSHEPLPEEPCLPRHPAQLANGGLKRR
Chain of RET (P07949 29-1114): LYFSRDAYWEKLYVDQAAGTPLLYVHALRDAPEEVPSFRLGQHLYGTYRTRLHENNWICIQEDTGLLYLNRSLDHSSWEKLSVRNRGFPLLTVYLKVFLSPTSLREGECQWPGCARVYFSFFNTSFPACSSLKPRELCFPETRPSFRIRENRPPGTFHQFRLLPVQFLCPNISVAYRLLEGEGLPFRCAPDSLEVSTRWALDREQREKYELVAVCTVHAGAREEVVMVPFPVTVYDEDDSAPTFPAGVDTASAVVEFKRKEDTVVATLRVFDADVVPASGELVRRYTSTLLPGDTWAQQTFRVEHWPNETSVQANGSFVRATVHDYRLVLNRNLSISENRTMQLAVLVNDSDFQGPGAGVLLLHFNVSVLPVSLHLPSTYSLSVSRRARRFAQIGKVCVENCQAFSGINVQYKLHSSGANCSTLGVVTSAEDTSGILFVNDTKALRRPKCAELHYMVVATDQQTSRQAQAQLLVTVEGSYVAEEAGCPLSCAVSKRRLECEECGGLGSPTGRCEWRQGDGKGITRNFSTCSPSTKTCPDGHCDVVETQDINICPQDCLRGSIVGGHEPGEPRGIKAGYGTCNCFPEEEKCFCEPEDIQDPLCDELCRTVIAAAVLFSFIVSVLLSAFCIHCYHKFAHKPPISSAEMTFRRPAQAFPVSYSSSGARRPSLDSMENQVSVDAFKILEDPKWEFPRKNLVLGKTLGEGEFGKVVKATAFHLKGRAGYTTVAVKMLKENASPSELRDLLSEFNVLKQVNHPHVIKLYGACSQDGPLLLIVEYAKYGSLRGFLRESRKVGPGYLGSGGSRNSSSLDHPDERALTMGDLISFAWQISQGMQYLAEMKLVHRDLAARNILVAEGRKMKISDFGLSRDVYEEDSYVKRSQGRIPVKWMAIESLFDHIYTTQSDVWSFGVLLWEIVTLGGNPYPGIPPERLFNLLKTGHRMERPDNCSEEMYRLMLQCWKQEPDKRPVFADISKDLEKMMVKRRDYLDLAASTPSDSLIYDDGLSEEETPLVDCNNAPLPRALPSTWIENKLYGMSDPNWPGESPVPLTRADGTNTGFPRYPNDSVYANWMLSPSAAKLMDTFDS

Regarding `COc1cc(CCc2cc(NC(=O)c3ccc(N4C[C@@H](C)N[C@@H](C)C4)cc3)n[nH]2)cc(OC)c1` [AZD4547, reference compound], the “relative tumor proliferation rate T/C” value in data set [1] (NCI-H1581, 12.5 mg/kg orally once a day for 14 days, 14th day) came to 24.03%; in data set [2] (SNU-16, 12.5 mg/kg orally once a day for 21 days, day 21), 18.46%. Moreover, the “Relative tumor volume RTV (mean ± SD)” value in data set [1] (d0) is listed as 1.00 ± 0.00; in data set [1] (d3), 1.27 ± 0.44; in data set [1] (d7), 3.43 ± 1.14; in data set [1] (d10), 5.57 ± 3.62; in data set [1] (d14), 13.81 ± 4.56; in data set [2] (d0), 1.00 ± 0.00. The “Relative tumor volume RTV (mean ± SD)” value in data set [2] (d3) is on record as 0.92 ± 0.29; in data set [2] (d7), 2.34 ± 1.23; in data set [2] (d10), 2.96 ± 2.19; in data set [2] (d14), 3.36 ± 3.14; in data set [2] (d17), 3.77 ± 2.56; in data set [2] (d21) it was 4.33 ± 3.29. Further, the “animal deaths during the experiment” value in data set [1] (NCI-H1581, each group (HuFGFR267 50 mg/kg, AZD4547 12.5 mg/kg)) is given as “no mice died”; in data set [2] (SNU-16, each group (HuFGFR267 50 and 25 mg/kg, AZD4547 12.5 mg/kg)) it was “no mice died”. The “Weight (g, mean ± SD)” value is recorded as 18.2 ± 1.6 g in data set [1] (d0); 19.3 ± 1.6 g in data set [1] (d3); 20.1 ± 1.9 g in data set [1] (d7); 20.6 ± 2.2 g in data set [1] (d10); 21.3 ± 2.3 g in data set [1] (d14); 18.8 ± 1.2 g in data set [2] (d0). Also, the “Weight (g, mean ± SD)” value in data set [2] (d3) was determined as 19.5 ± 1.3 g; in data set [2] (d7), 20.0 ± 1.5 g; in data set [2] (d10), 20.7 ± 1.5 g; in data set [2] (d14) it was 21.1 ± 1.6 g; in data set [2] (d17), 20.9 ± 1.7 g; in data set [2] (d21), 21.0 ± 1.7 g.

In the case of `COc1ncccc1C#Cc1cc(C(=O)Nc2ccc(CN3CCN(C)CC3)c(C(F)(F)F)c2)ccc1Cl` [HuFGFR148, reference compound], the “inhibition ratio FGFR1 (100 nM)” value on FGFR1 is reported as 22.4. The “10 nM inhibition ratio KDR” value at KDR is 18.2. In addition, the “10 nM inhibition ratio RET” value on RET worked out at 21.7.

Regarding `CN1CCN(Cc2ccc(NC(=O)c3ccc(Cl)c(C#Cc4cccnc4F)c3)cc2C(F)(F)F)CC1` [HuFGFR150, reference compound], the “10 nM inhibition ratio FGFR1” value on FGFR1 (10 nM compound, average of two independent experiments) worked out at 35.1. Besides, on KDR, the “10 nM inhibition ratio KDR” value is 32.3. The “10 nM inhibition ratio RET” value on RET amounted to 30.3.

Consider `CN1CCN(Cc2ccc(NC(=O)c3ccc(Cl)c(C#Cc4ccc(N)nc4)c3)cc2C(F)(F)F)CC1` [HuFGFR151, reference compound], for which the “inhibition ratio FGFR1 (100 nM)” value on FGFR1 was found to be 21.1. The “inhibition ratio KDR (100 nM)” value on KDR (100 nM compound) was determined as 23.9. For the same molecule, the “inhibition ratio RET (100 nM)” value on RET (100 nM compound) came out at 29.7.
